The target in assay [1] is T1, human Gcg receptor (hGcgR) (Homo sapiens, UniProt P47871).
T1 construct: expressed in transfected cells; crude membranes
The assay is described as follows: [125I]-Glucagon binding, SPA with membranes of HEK293 cells expressing hGcgR. The settings on record: human GcgR; geometric mean (SEM, n); read-out: Binding Affinity Ki, nM (SEM, n) hGCGR.

The target in assay [2] is T2, hGIPR (Homo sapiens, UniProt P48546).
T2 construct: expressed in transfected cells
T2 sequence (P48546 22-466): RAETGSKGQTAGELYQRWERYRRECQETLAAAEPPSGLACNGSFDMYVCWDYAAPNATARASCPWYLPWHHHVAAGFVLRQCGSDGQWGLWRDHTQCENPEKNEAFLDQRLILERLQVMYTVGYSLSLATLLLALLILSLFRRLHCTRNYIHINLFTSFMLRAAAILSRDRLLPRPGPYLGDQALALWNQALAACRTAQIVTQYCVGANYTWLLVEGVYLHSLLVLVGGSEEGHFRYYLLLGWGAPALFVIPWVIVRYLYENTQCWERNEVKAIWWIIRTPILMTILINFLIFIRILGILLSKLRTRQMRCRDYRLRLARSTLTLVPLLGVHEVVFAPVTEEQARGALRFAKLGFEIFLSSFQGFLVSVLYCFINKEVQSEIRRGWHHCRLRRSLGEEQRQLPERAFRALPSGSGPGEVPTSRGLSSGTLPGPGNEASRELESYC
Put plainly: Functional cAMP formation (HTRF) in HEK-293 clonal cells expressing hGIPR, 0.1% bovine casein, without or with 1.0% human serum albumin. The assay is classed as cell-based. The following applies: for Emax: read-out: hGIPR Emax, % ± SEM; for EC50: read-out: hGIPR EC50, nM (SEM, n). The procedure, abridged: (§1)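 Readings of the HTRF 665/620 nm ratio, which falls as cAMP rises, were converted to nM cAMP using a standard curve after 30 min peptide exposure at 37° C.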
Background: Cyclic AMP is a second messenger, typically raised through Gs and lowered through Gi signalling.

For assay [3], the target named is T3, hGCGR (Homo sapiens, UniProt P47871).
T3 construct: expressed in transfected cells
The assay is described as follows: Functional cAMP formation (HTRF) in HEK-293 clonal cells expressing hGCGR, 0.1% bovine casein, without or with 1.0% human serum albumin. The assay is classed as cell-based. The following applies: read-out: hGCGR EC50, nM (SEM, n). The procedure, abridged: as §1

The target of assay [4] is hGLP-1R (Homo sapiens, UniProt P43220). The assay is described as follows: Functional cAMP formation (HTRF) in HEK-293 clonal cells expressing hGLP-1R, 0.1% bovine casein, without or with 1.0% human serum albumin. The assay is classed as cell-based. Set-up: expressed in transfected cells. The following applies: for Emax: read-out: hGLP-1R Emax, % ± SEM; for EC50: geometric mean, read-out: hGLP-1R EC50, nM (SEM, n). The procedure, abridged:
as §1

[5] abbreviates: HEK293, 0.1% bovine casein and 1.0% human serum albumin, 37° C., percent of maximal response to GIP(1-42)NH2.
Setting [6] is: HEK293, percent of maximal response to GIP(1-42)NH2, 37° C., 0.1% bovine casein, arithmetic mean.
The mark [7] stands for this setting: 0.1% bovine casein and 1.0% human serum albumin, 37° C., geometric mean.
[8] abbreviates: cAMP, incubated at 37° C., 0.1% bovine casein (no human serum albumin), geometric mean.
Where [9] appears, read: HEK293, 0.1% bovine casein and 1.0% human serum albumin, 37° C., percent of maximal response to GLP-1(7-36)NH2.
Where [10] appears, read: HEK293, percent of maximal response to GLP-1(7-36)NH2, 37° C., 0.1% bovine casein, arithmetic mean.
The mark [11] stands for this setting: 0.1% bovine casein and 1.0% human serum albumin, 37° C.
Where [12] appears, read: cAMP, 37° C., 0.1% bovine casein (no human serum albumin), geometric mean.
Setting [13] is: cAMP, 37° C., 0.1% bovine casein and 1.0% human serum albumin, geometric mean (SEM, n).

Like-named read-outs stand apart in the source and are kept apart here. Some results are limits rather than exact numbers.

Chain of hGLP-1R (P43220 24-463): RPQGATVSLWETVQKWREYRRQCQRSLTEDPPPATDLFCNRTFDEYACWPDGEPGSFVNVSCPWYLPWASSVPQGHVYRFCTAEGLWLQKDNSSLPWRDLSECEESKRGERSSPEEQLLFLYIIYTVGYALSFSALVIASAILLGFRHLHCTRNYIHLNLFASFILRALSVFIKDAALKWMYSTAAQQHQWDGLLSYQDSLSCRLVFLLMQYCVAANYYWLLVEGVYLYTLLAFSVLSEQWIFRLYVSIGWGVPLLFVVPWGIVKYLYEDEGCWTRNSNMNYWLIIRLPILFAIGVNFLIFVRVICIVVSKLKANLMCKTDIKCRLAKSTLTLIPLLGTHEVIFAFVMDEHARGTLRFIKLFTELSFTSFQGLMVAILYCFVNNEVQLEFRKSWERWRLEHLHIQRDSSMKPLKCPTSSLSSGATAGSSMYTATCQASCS
T1 sequence (P47871 26-477): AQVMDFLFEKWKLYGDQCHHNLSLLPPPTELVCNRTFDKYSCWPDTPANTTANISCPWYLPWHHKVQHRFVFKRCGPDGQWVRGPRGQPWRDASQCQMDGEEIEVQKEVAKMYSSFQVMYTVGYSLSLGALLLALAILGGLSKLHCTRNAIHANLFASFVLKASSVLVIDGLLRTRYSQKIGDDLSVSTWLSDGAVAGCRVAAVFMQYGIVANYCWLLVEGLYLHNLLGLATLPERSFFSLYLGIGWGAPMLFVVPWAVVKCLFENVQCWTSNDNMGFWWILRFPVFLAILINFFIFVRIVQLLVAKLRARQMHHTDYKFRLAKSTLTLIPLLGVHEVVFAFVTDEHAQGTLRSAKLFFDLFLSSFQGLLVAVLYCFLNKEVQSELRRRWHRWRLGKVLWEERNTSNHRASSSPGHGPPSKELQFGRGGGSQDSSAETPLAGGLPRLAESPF
T3 sequence (P47871 26-477): as above

The term Ki denotes a dissociation constant, usually derived from enzyme kinetics or from competition with a known ligand. As usually defined, the Emax is the size of the effect at its maximum, as opposed to the concentration needed. Usually EC50 stands for the midpoint of the concentration-response curve. As to `CC[C@H](C)[C@H](NC(=O)[C@H](CC(C)C)NC(=O)[C@](C)(Cc1ccc(O)cc1)NC(=O)[C@@H](CCC(=O)O)NC(=O)[C@@H](NC(=O)[C@H](Cc1ccccc1)NC(=O)[C@H](CCC(=O)O)NC(=O)C(C)(C)NC(=O)[C@H](CCC(N)=O)NC(=O)[C@H](C)NC(=O)[C@H](CCCCNC(=O)COCCOCCNC(=O)COCCOCCNC(=O)CC[C@H](NC(=O)CCCCCCCCCCCCC(=O)O)C(=O)O)NC(=O)[C@H](CCCN)NC(=O)[C@H](CC(=O)O)NC(=O)[C@H](CC(C)C)NC(=O)[C@](C)(CC(C)C)NC(=O)[C@@H](NC(=O)[C@H](CO)NC(=O)[C@](C)(Cc1ccccc1)NC(=O)[C@H](CC(=O)O)NC(=O)[C@H](CO)NC(=O)[C@@H](NC(=O)[C@](C)(Cc1ccccc1)NC(=O)[C@@H](NC(=O)CNC(=O)[C@H](CCC(=O)O)NC(=O)C(C)(C)NC(=O)[C@@H](N)Cc1ccc(O)cc1)[C@@H](C)O)[C@@H](C)O)[C@@H](C)CC)[C@@H](C)CC)C(=O)N[C@@H](CCC(=O)O)C(=O)NCC(=O)NCC(=O)N[C@@H](CCCCNC(=O)COCCOCCNC(=O)COCCOCCNC(=O)CC[C@H](NC(=O)CCCCCCCCCCCCC(=O)O)C(=O)O)C(=O)N[C@@H](CO)C(=O)N[C@@H](CO)C(=O)NCC(=O)N[C@@H](C)C(=O)N1CCC[C@H]1C(=O)N1CCC[C@H]1C(=O)N1CCC[C@H]1C(=O)N[C@@H](CO)C(N)=O` [Example 45], the Ki in assay [1] is above 966 nM. Further, the Emax is 72.5% in assay [2] (setting [5]), 91.3 ± 1.04% in assay [2] (setting [6]), 109% in assay [4] (setting [9]) and 85.7 ± 8.37% in assay [4] (setting [10]). For the same molecule, the concentration giving a half-maximal response (EC50) in assay [3] (setting [7]) was above 9950 nM; in assay [3] (setting [8]), above 9950 nM; in assay [4] (cAMP, incubated at 37° C., 0.1% bovine casein (no human serum albumin)) it was 9.18 nM.

Consider `CC[C@H](C)[C@H](NC(=O)[C@H](CC(C)C)NC(=O)[C@](C)(Cc1ccc(O)cc1)NC(=O)[C@@H](CCC(=O)O)NC(=O)[C@@H](NC(=O)[C@H](Cc1ccccc1)NC(=O)[C@H](CCC(=O)O)NC(=O)C(C)(C)NC(=O)[C@H](CCC(N)=O)NC(=O)[C@H](C)NC(=O)[C@H](CCCCNC(=O)COCCOCCNC(=O)COCCOCCNC(=O)CC[C@H](NC(=O)CCCCCCCCCCCCC(=O)O)C(=O)O)NC(=O)[C@H](CCCN)NC(=O)[C@H](CC(=O)O)NC(=O)[C@H](CC(C)C)NC(=O)[C@](C)(CC(C)C)NC(=O)[C@@H](NC(=O)[C@H](CO)NC(=O)[C@H](Cc1ccncc1)NC(=O)[C@H](CC(=O)O)NC(=O)[C@H](CO)NC(=O)[C@@H](NC(=O)[C@](C)(Cc1ccccc1F)NC(=O)[C@@H](NC(=O)CNC(=O)[C@H](CCC(=O)O)NC(=O)C(C)(C)NC(=O)[C@@H](N)Cc1ccc(O)cc1)[C@@H](C)O)[C@@H](C)O)[C@@H](C)CC)[C@@H](C)CC)C(=O)N[C@@H](CCC(=O)O)C(=O)NCC(=O)N[C@@H](CCCCNC(=O)COCCOCCNC(=O)COCCOCCNC(=O)CC[C@H](NC(=O)CCCCCCCCCCCCC(=O)O)C(=O)O)C(=O)N1CCC[C@H]1C(=O)N[C@@H](CO)C(=O)N[C@@H](CO)C(=O)NCC(=O)N[C@@H](C)C(=O)N1CCC[C@H]1C(=O)N1CCC[C@H]1C(=O)N1CCC[C@H]1C(=O)N[C@@H](CO)C(N)=O` [Example 18], for which the Ki in assay [1] is above 958 nM. Besides, the EC50 was 1.12 nM in assay [2] (setting [7]); 0.0226 nM in assay [2] (setting [8]); above 9950 nM in assay [3] (setting [7]); above 9950 nM in assay [3] (setting [8]); 164 nM in assay [4] (setting [11]). Besides, the maximal effect (Emax) in assay [2] (setting [5]) was found to be 86.9 ± 3.59%; in assay [2] (setting [6]) it was 97.1 ± 3.28%.

As for `CC[C@H](C)[C@H](NC(=O)[C@H](CC(C)C)NC(=O)[C@](C)(Cc1ccc(O)cc1)NC(=O)[C@@H](CCC(=O)O)NC(=O)[C@@H](NC(=O)[C@H](Cc1ccccc1)NC(=O)[C@H](CCC(=O)O)NC(=O)C(C)(C)NC(=O)[C@H](CCC(N)=O)NC(=O)[C@H](C)NC(=O)[C@H](CCCCNC(=O)COCCOCCNC(=O)COCCOCCNC(=O)CC[C@H](NC(=O)CCCCCCCCCCCCC(=O)O)C(=O)O)NC(=O)[C@H](CCCN)NC(=O)[C@H](CC(=O)O)NC(=O)[C@H](CC(C)C)NC(=O)[C@](C)(CC(C)C)NC(=O)[C@@H](NC(=O)[C@H](CO)NC(=O)[C@H](Cc1ccncc1)NC(=O)[C@H](CC(=O)O)NC(=O)[C@H](CO)NC(=O)[C@@H](NC(=O)[C@](C)(Cc1ccccc1)NC(=O)[C@@H](NC(=O)CNC(=O)[C@H](CCC(=O)O)NC(=O)C(C)(C)NC(=O)[C@@H](N)Cc1ccc(O)cc1)[C@@H](C)O)[C@@H](C)O)[C@@H](C)CC)[C@@H](C)CC)C(=O)N[C@@H](CCC(=O)O)C(=O)NCC(=O)NCC(=O)N[C@@H](CCCCNC(=O)COCCOCCNC(=O)COCCOCCNC(=O)CC[C@H](NC(=O)CCCCCCCCCCCCC(=O)O)C(=O)O)C(=O)N[C@@H](CO)C(=O)N[C@@H](CO)C(=O)NCC(=O)N[C@@H](C)C(=O)N1CCC[C@H]1C(=O)N1CCC[C@H]1C(=O)N1CCC[C@H]1C(=O)N[C@@H](CO)C(N)=O` [Example 44], in assay [1], the inhibitory constant (Ki) is above 966 nM. Besides, the half-maximal effective concentration (EC50) in assay [2] (setting [7]) was 1.68 nM; in assay [3] (setting [7]), above 9950 nM; in assay [3] (setting [8]), above 9950 nM; in assay [4] (setting [11]), 125 nM. Moreover, the maximum response (Emax) was found to be 87% in assay [2] (setting [5]), 92.2 ± 6.17% in assay [2] (setting [6]), 94.5% in assay [4] (setting [9]) and 90.9 ± 10.4% in assay [4] (setting [10]).

In the case of `CC[C@H](C)[C@H](NC(=O)[C@H](CC(C)C)NC(=O)[C@](C)(Cc1ccc(O)cc1)NC(=O)[C@@H](CCC(=O)O)NC(=O)[C@@H](NC(=O)[C@H](Cc1ccccc1)NC(=O)[C@H](CCC(=O)O)NC(=O)C(C)(C)NC(=O)[C@H](CCC(N)=O)NC(=O)[C@H](C)NC(=O)[C@H](CCCCNC(=O)COCCOCCNC(=O)CC[C@H](NC(=O)CCCCCCCCCCCCC(=O)O)C(=O)O)NC(=O)[C@H](CCCN)NC(=O)[C@H](CC(=O)O)NC(=O)[C@H](CC(C)C)NC(=O)[C@](C)(CC(C)C)NC(=O)[C@@H](NC(=O)C(C)(C)NC(=O)[C@H](Cc1ccncc1)NC(=O)[C@H](CC(=O)O)NC(=O)[C@H](CO)NC(=O)[C@@H](NC(=O)[C@](C)(Cc1ccccc1F)NC(=O)[C@@H](NC(=O)CNC(=O)[C@H](CCC(=O)O)NC(=O)C(C)(C)NC(=O)[C@@H](N)Cc1ccc(O)cc1)[C@@H](C)O)[C@@H](C)O)[C@@H](C)CC)[C@@H](C)CC)C(=O)N[C@@H](CCCCNC(=O)COCCOCCNC(=O)CC[C@H](NC(=O)CCCCCCCCCCCCC(=O)O)C(=O)O)C(=O)NCC(=O)NCC(=O)N1CCC[C@H]1C(=O)N[C@@H](CO)C(=O)N[C@@H](CO)C(=O)NCC(=O)N[C@@H](C)C(=O)N1CCC[C@H]1C(=O)N1CCC[C@H]1C(=O)N1CCC[C@H]1C(=O)N[C@@H](CO)C(N)=O` [Example 337], the Ki in assay [1] is above 957 nM. Also, the Emax in assay [2] (HEK293, cAMP, 37° C., 0.1% bovine casein and 1.0% human serum albumin, percent of maximal response to GIP(1-42)NH2) amounted to 86.8%; in assay [4] (HEK293, cAMP, 37° C., 0.1% bovine casein and 1.0% human serum albumin, percent of maximal response to GLP-1(7-36)NH2), 100%. Further, the EC50 is 0.0151 nM in assay [2] (setting [12]); 2.65 nM in assay [2] (setting [13]); above 10100 nM in assay [3] (setting [12]); above 10100 nM in assay [3] (setting [13]); 0.444 nM in assay [4] (cAMP, 37° C., 0.1% bovine casein (no human serum albumin)).

These data come from patent publication US20230265151A1, “GIP/GLP1 CO-AGONIST COMPOUNDS” (priority 2020, published 2023).
